Source: ChEMBL document CHEMBL1201862, “PubChem BioAssay data set” (2004)
Values joined by “and” are separate entries in the source; they are usually repeats but may differ in a detail not shown here. Equal values may be shown once. Active and inactive are the calls of the source. For most assays here, no stated cut-off is given here; in the data, actives have a measured EC50 and inactives only a lower limit.

Tests used:
[1] = cytotoxicity toward NIH3T3 fibroblasts, dose response, counter-screen, cell-based, ATP luminescence, mouse fibroblasts (AID 2010); type: functional;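 further: cells exposed to compound for about 90 hours before reading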
[2] = inhibitors of intracellular T. cruzi replication, confirmation, NIH3T3 host cells, beta-gal luminescence (AID 2044); type: functional, cell-based;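 further: intracellular parasites grown in NIH/3T3 mouse fibroblasts as host cells; luminescent beta-galactosidase reporter signal from transgenic T. cruzi replicating inside host cells; inhibitors lower the luminescence signal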
[3] = system: Streptococcus sp. 'group A'; test: growth inhibition of control SK(-) GAS strain, dose response, counter-screen for streptokinase expression inhibitor project, luminescence, kanamycin, BacTiterGlo, confirmation (AID 1900); type: functional, organism-based
Streptococcus = test: Group A Streptococcus viability loss, dose response, counter-screen for streptokinase expression inhibitor project, luminescence, BacTiterGlo (AID 1915); type: functional, organism-based;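 further: potency for reduction of bacterial viability or growth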
Streptokinase A = biological target: T1, Streptokinase A (Streptococcus pyogenes serotype M1, UniProt P10520); test: S. pyogenes streptokinase expression inhibitors, potency, dose response, plasminogen activation absorbance, OD405 (AID 1914); type: functional, Streptococcus pyogenes M1 GAS;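 further: secreted streptokinase activity via plasminogen activation per viability signal from cell pellet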
T1 sequence (P10520 whole entry): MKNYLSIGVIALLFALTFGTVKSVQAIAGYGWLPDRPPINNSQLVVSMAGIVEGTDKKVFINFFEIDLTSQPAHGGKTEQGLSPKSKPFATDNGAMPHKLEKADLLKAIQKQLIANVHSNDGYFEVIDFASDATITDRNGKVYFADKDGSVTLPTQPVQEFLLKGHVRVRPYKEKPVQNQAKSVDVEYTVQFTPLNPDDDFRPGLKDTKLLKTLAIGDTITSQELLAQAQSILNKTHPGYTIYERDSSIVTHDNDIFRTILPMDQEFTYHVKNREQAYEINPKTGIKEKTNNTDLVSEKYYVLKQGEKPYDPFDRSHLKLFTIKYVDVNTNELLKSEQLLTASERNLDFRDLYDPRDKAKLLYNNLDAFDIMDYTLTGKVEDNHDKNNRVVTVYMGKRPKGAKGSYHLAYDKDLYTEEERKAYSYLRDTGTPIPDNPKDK

Cytochrome P450 3A4 = Cytochrome P450 3A4 (Homo sapiens, UniProt P08684);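 further: CYP3A4 tested as one member of a cytochrome P450 panel screen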
Cytochrome P450 3A4, sequence (P08684 whole entry): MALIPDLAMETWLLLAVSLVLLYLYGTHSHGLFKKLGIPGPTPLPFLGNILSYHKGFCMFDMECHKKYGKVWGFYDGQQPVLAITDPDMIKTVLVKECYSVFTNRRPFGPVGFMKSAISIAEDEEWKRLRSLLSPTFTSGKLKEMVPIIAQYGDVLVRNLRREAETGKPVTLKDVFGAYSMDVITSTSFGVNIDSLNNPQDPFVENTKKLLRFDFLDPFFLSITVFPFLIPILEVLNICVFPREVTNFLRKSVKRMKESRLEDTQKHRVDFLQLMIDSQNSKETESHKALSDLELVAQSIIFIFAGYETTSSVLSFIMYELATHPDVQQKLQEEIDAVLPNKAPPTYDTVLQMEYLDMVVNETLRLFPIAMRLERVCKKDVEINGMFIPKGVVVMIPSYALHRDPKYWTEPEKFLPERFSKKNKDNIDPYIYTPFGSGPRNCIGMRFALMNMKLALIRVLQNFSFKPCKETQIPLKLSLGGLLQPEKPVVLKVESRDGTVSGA

[4] = biological target: T2, Heat shock factor protein 1 (Mus musculus, UniProt P38532); test: inhibition of MG132-induced HSE-luciferase signal, confirmation, cell-based, NIH3T3, luminescence, dose retest (AID 2382); type: functional;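 further: NIH3T3 fibroblasts with HSF1-driven luciferase reporter stressed by proteasome inhibitor MG132; luminescence from HSF1-driven luciferase expression after 8 hours of MG132 stress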
T2 sequence (P38532 whole entry): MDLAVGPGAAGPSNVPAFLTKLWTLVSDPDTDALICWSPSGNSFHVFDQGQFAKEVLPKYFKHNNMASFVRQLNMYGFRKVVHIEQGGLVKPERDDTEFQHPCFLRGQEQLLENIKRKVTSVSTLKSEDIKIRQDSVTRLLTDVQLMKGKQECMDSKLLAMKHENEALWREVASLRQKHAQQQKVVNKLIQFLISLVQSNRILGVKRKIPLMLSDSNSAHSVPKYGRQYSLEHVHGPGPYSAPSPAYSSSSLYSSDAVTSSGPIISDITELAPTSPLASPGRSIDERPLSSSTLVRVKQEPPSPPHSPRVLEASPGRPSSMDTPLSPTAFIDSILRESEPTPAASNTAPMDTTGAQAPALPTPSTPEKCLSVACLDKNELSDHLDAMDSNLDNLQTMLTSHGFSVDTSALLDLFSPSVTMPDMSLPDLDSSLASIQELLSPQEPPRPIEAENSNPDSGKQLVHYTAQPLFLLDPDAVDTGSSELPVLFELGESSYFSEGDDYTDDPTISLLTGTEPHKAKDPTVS

## Cc1nc2cc([N+](=O)[O-])ccc2c(=O)n1-c1ccccc1[N+](=O)[O-]
[1]
  EC50: 19.1 µM (active)
[2]
  EC50: 1910 nM (active)

## Sc1nc(SCc2ccccc2)nc2ccccc12
[3]
  EC50: 4.43 µM (active)
Streptococcus
  EC50: 64.9 µM (active)

## COC(=O)c1ccc(CSc2cc(C)c3cc(C)cc(C)c3n2)o1
[3]
  EC50: 34.2 µM (active)
Streptococcus
  EC50: > 150 µM (not active)
Streptokinase A
  EC50: 12.6 µM (active)

## C[C@H](N)Cc1c[nH]c2ccc(OCc3cccs3)cc12
Cytochrome P450 3A4
  AC50: 15.8 µM (inconclusive) and 12.6 µM (inconclusive)

## Cc1noc(C)c1-c1nccc(N(C)C)n1
Cytochrome P450 3A4
  AC50: 31.6 µM (inconclusive)

## CCCCN(C)S(=O)(=O)c1ccc(C(=O)N(CCN(C)C)c2nc3ccc(C)cc3s2)cc1
[1]
  EC50: > 60 µM (inconclusive)
[2]
  EC50: 182 nM (active)

## COCCOC(=O)CC1=NC(=O)CS1
[4]
  EC50: > 195 µM (not active)

## COc1cccc(COC(=O)c2ccc3c(=O)n4c(nc3c2)CCC4)c1OC
[3]
  EC50: 10.8 µM (active)
Streptococcus
  EC50: 34.1 µM (active)
Streptokinase A
  EC50: > 150 µM (not active)

## Cc1cccc(NC(c2ccc(C)s2)c2ccc3ccc(C)nc3c2O)n1 (stereo not drawn)
[3]
  EC50: 2.83 µM (active)
Streptococcus
  EC50: 9.05 µM (active)
Streptokinase A
  EC50: 2.96 µM (active)

## CCCCCCCc1nn2c(O)cc(=O)nc2s1
[3]
  EC50: 10.9 µM (active)
Streptococcus
  EC50: > 150 µM (not active)
Streptokinase A
  EC50: > 150 µM (not active)

## C=CCn1c(O)c(N=NC(=S)Nc2ccc(OC)c(Cl)c2)c2ccccc21
[1]
  EC50: 3.88 µM (active)
[2]
  EC50: 586 nM (active)

## C=CCn1c(C)cc(C(=O)CSc2nnc(NC(C)C)s2)c1C
[4]
  EC50: > 195 µM (not active)

## O=C(CSc1nnc(NC(=O)c2cccc(Cl)c2)s1)NCC1CCCO1 (stereo not drawn)
[3]
  EC50: > 150 µM (not active)
Streptococcus
  EC50: > 150 µM (not active)
Streptokinase A
  EC50: > 150 µM (not active)

## COc1ccc(-n2ncc3c(NCCCN4CCOCC4)ncnc32)cc1
[4]
  EC50: 1.52 µM (active)

## Cc1c2c(n3c(nc4ccccc43)c1C#N)N(CCCN(C)C)CC2
[1]
  EC50: > 60 µM (not active)
[2]
  EC50: 242 nM (active)

## O=C(c1cc(C(F)(F)F)cc(C(F)(F)F)c1)N1CCC[C@@]2(CCN(c3ccccc3)C2)C1
Cytochrome P450 3A4
  AC50: 3.16 µM (inconclusive)

## Cc1cccc(CN2CCCC(C(=O)N3CCc4ccccc4C3)C2)c1 (stereo not drawn)
[1]
  EC50: > 60 µM (not active)
[2]
  EC50: 214 nM (active)

## O=C1[C@H]2[C@H]3[C@H](O)[C@H](O)C/C(=N/OC[C@@H](O)COCc4ccco4)[C@H]3CC[C@@H]2C(=O)N1c1cccc(Oc2ccccc2)c1
Cytochrome P450 3A4
  AC50: 3.16 µM (inconclusive)

## Cc1ccc(CN2C(=O)c3ccccc3NC2c2cc(Br)ccc2O)cc1 (stereo not drawn)
[3]
  EC50: 5.08 µM (active)
Streptococcus
  EC50: 8.52 µM (active)
Streptokinase A
  EC50: 5 µM (active)

## CCCCC(=O)Nc1cccc(NC(=O)c2cccc(Br)c2)c1
[4]
  EC50: > 195 µM (not active)

## CN1CCN(c2ncc3nc(-c4cc(F)cc(F)c4)c(=O)n(C4CC4)c3n2)CC1
Cytochrome P450 3A4
  AC50: 39.8 µM (inconclusive)

## Cc1ccc(-c2nn(-c3ccccc3)cc2CN(C)C(=O)CCC(=O)O)cc1C
[4]
  EC50: > 195 µM (not active)

## COc1ccc(N(C)C(=O)c2oc(=O)c3ccccc3c2-c2ccccc2)c(OC)c1
[4]
  EC50: > 195 µM (not active)

## CCC1COCCS(=O)(=O)N1Cc1ccccc1C (stereo not drawn)
[4]
  EC50: > 195 µM (not active)

## OCCCCNCc1ccc(OCc2ccc(Cl)cc2)cc1
[1]
  EC50: 10.6 µM (active)
[2]
  EC50: 2390 nM (active)

## Cc1cc(C(C)(C)C)ccc1OCCOCCN1CCCC1
[1]
  EC50: > 60 µM (inconclusive)
[2]
  EC50: 913 nM (active)

## N#CC1=C(N)SC(N)=C(C#N)C1c1c(Cl)cccc1Cl
[3]
  EC50: 6.67 µM (active)
Streptococcus
  EC50: > 150 µM (not active)
Streptokinase A
  EC50: 93.5 µM (active)

## CNc1ccnc(-c2ccccc2OC)n1
Cytochrome P450 3A4
  AC50: 31.6 µM (inconclusive)

## Cc1cccc(N2CCN(C(=O)c3ccc4nc(N5CCCCC5)sc4c3)CC2)c1C
[3]
  EC50: 13.8 µM (active)
Streptococcus
  EC50: 140 µM (active)
Streptokinase A
  EC50: 14.6 µM (active)

## Cc1ccccc1C(=O)OC1CCN(C)CC1
[1]
  EC50: 42.4 µM (active)
[2]
  EC50: 115 nM (active)

## CC(=O)[C@@H]1CC[C@@H]2[C@@H]3CC=C4C[C@H](OS(=O)(=O)O)CC[C@@]4(C)[C@H]3CC[C@]21C
Cytochrome P450 3A4
  AC50: 12.6 µM (inconclusive)

## CCn1ncc(CN2CCCC(CNC(=O)c3ccc(F)cc3)C2)c1C (stereo not drawn)
[1]
  EC50: > 60 µM (not active)
[2]
  EC50: 106 nM (active)

## CO[C@H]1COC(=O)CCC[C@@H](C)[C@H](OC)COC(=O)[C@H]2CCCN2C(=O)C/C=C\[C@@H]1C
Cytochrome P450 3A4
  AC50: 5.01 µM (inconclusive)

## CC(C)(C)NC(=O)CSc1nc2ccc(Nc3nc(N4CCOCC4)nc(N4CCOCC4)n3)cc2s1
[1]
  EC50: > 30 µM (not active)
[2]
  EC50: 832 nM (active)

## CCOC(=O)c1[nH]c(C)c(C(=O)N2CCC3(CC2)OCCO3)c1C
Cytochrome P450 3A4
  AC50: 22.4 µM (inconclusive)

## Cc1cc(C)c2nc(O)c(CN(Cc3ccccc3)C(S)=NCCCN(C)C)cc2c1
[1]
  EC50: > 60 µM (not active)
[2]
  EC50: 2190 nM (active)

## CC(=O)OC[C@@H]1O[C@H](C/C=N\O[C@@H](C)CN2CCCc3nc(C)c(C)cc32)C=C[C@@H]1OC(C)=O
Cytochrome P450 3A4
  AC50: 3.98 µM (inconclusive)

## CCOC(=O)c1c(-c2ccccc2)c2cc(OC)ccc2n1CCCN(C)C
[1]
  EC50: 16.3 µM (active)
[2]
  EC50: 653 nM (active)

## CCC(C)n1c(SC(C)C#N)nc2ccccc2c1=O (stereo not drawn)
[4]
  EC50: > 195 µM (not active)

## COC(=O)C(Cc1cnc(Cl)s1)(C(=O)OC)c1ccc([N+](=O)[O-])cc1[N+](=O)[O-]
[1]
  EC50: > 60 µM (not active)
[2]
  EC50: 1200 nM (active)

## Cc1nn(-c2ccccc2)c(N)c1C(O)(CSc1nccn1C)C(F)(F)F (stereo not drawn)
[4]
  EC50: > 195 µM (not active)

## O=C(c1c(F)cccc1F)N1CCN(c2ccccc2F)CC1
[4]
  EC50: > 195 µM (not active)

## COc1ccc(S(=O)(=O)N2CCC(NC(=O)C(Cc3cccc(OC)c3OC)NC(C)=O)CC2)cc1 (stereo not drawn)
[4]
  EC50: > 195 µM (not active)

## Cc1ccsc1C(=O)OCC(=O)c1cc2ccccc2o1
[3]
  EC50: > 150 µM (not active)
Streptococcus
  EC50: > 150 µM (not active)
Streptokinase A
  EC50: > 150 µM (not active)

## CCOc1ccc(CN2CCCC(CNC(=O)c3ccc(F)cc3)C2)cc1CO (stereo not drawn)
[1]
  EC50: > 30 µM (not active)
[2]
  EC50: 771 nM (active)

## Cc1ccccc1SCC(=O)Nc1cc(C(F)(F)F)ccc1N1CCOCC1
[1]
  EC50: > 60 µM (not active)
[2]
  EC50: 3940 nM (active)

## CN(c1ccccc1)c1nc(N2CCCC2)nc(-n2ccnc2)n1
[3]
  EC50: 13.1 µM (active)
Streptococcus
  EC50: > 50 µM (not active)
Streptokinase A
  EC50: 75.6 µM (active)

## CN1CCC(OC(=O)c2cccc(F)c2)CC1
[1]
  EC50: > 30 µM (not active)
[2]
  EC50: 256 nM (active)

## CC1CCN(CCOCCOc2ccc(Cl)cc2Br)CC1
[1]
  EC50: 13.8 µM (active)
[2]
  EC50: 540 nM (active)

## O=C(N/N=C/c1cc([N+](=O)[O-])ccc1O)c1ccncc1
[4]
  EC50: 0.66 µM (active)

## Cc1[nH]c2ccccc2c1/C=N/Nc1ccccc1[N+](=O)[O-]
[1]
  EC50: > 60 µM (not active)
[2]
  EC50: 2300 nM (active)

## CCOc1cc(/C=N/NC(=O)CN(CCc2ccccc2)S(=O)(=O)c2ccc(NC(C)=O)cc2)ccc1O
[4]
  EC50: > 195 µM (not active)

## CC(/N=C/C1=C(O)OC(C)(C)OC1=O)C(=O)O (stereo not drawn)
[1]
  EC50: > 60 µM (not active)

## CCOc1ccc(/C=N/Nc2cc(N3CCOCC3)nc(C)n2)c(O)c1
[3]
  EC50: > 150 µM (not active)
Streptococcus
  EC50: > 150 µM (not active)
Streptokinase A
  EC50: > 150 µM (not active)

## O=C(CSc1ccccn1)N/N=C/c1cc([N+](=O)[O-])ccc1O
[3]
  EC50: 1.01 µM (active)
Streptococcus
  EC50: 2.72 µM (active)

## CCCCCCCCCC(=O)N/N=C(\C)c1cccnc1
[1]
  EC50: > 60 µM (not active)
[2]
  EC50: 1310 nM (active)

## COc1cccc(/C=N/NC(=O)c2nnn(-c3nonc3N)c2C(C)C)c1OCc1ccc(F)cc1
[3]
  EC50: 13 µM (active)
Streptococcus
  EC50: 43.1 µM (active)
Streptokinase A
  EC50: 62.6 µM (active)

## O=C(O)c1cc2cc(F)ccc2[nH]1 [5-FLUOROINDOLE-2-CARBOXYLIC ACID]
[4]
  EC50: > 195 µM (not active)
